Data set [1] can be described thus: Inhibition of GABA receptor BZ domain (unknown origin). The arrangement: species or system Homo sapiens.
For the next data set, the target named is Plasma kallikrein (Homo sapiens, UniProt P03952). Briefly: Inhibition of plasma kallikrein (unknown origin).
The nature of data set [2]: Dissociation constant, pKa of compound. It counts as physicochemical.
In data set [3] the target is cGMP-specific 3',5'-cyclic phosphodiesterase (Homo sapiens, UniProt O76074).
Description: Inhibition of PDE5 (unknown origin)

Structures are written as SMILES.

Plasma kallikrein, sequence (P03952 20-390 limits assumed): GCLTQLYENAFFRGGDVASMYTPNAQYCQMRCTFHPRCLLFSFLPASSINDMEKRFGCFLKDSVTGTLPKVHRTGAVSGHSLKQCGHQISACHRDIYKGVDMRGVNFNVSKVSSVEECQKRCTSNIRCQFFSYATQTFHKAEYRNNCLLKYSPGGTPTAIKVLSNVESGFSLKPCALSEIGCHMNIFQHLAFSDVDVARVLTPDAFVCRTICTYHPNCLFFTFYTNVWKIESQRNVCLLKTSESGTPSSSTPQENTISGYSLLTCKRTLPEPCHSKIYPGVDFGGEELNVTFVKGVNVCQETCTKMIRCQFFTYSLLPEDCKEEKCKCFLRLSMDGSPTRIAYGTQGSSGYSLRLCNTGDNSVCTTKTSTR
Plasma kallikrein, sequence (P03952 391-638 limits assumed): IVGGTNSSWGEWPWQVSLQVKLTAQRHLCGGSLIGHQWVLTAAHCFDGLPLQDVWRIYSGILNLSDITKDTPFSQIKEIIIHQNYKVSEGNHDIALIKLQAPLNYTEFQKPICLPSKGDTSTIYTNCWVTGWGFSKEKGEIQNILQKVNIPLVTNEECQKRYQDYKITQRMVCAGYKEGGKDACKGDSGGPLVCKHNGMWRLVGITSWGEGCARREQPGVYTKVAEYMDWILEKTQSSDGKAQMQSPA

As a reminder, the IC50 is the midpoint of a concentration-inhibition curve. Low readings indicate greater potency in that assay, high ones weaker potency in that assay. In the case of `CCN(C(C)=O)c1cccc(-c2ccnc3c(C#N)cnn23)c1` [ZALEPLON], in data set [1], inhibition was half-maximal at 167 nM (IC50).
On to `N#Cc1cccc([C@@H](NCC2CC2)c2ccc(F)c(NC(=O)c3cc(C(F)(F)F)nn3-c3cccc(CN)c3)c2)c1` [BEROTRALSTAT], for which, on Plasma kallikrein, half-maximal inhibition (IC50) was put at 1 nM.
As a reminder, the pKa is the negative logarithm of the acid dissociation constant. A low value points to a stronger acid or weaker base. In the case of `CCCCc1nc(-c2ccccc2Cl)c(C(=O)O)n1Cc1ccc(-c2ccccc2-c2nn[nH]n2)cc1`, the pKa in data set [2] was determined as 2.5.
For `CCCOc1ccc(S(=O)(=O)NCCC2CCCN2C)cc1-c1nc2c(CCC)nn(C)c2c(=O)[nH]1` (stereo not given), half-maximal inhibition in data set [3] (IC50) was put at 8.25 nM.
As for `CCCCc1nn(-c2ccccc2Cl)c(C(=O)O)c1Cc1ccc(-c2ccccc2-c2nn[nH]n2)cc1`, the pKa in data set [2] is 7.1.
